Literature values as cited in patent US20230354835A1, “USE OF LIQUID SMOKE IN CONJUNCTION WITH FOOD GRADE COATINGS TO CONTROL PEST INFESTATIONS” (Mississippi State University, priority 2022, published 2023).

Tested on: Tyrophagus putrescentiae
Conditions: Abbar et al., 2016a; coating on ham cubes 2.5×2.5×2.5 cm^3

## CC(O)CO (stereo not shown) [100% propylene glycol, 1,2-propanediol]
  Inhibition of mite growth on dry-cured ham cubes (in words): effective at inhibiting mite growth
